Source: ChEMBL document CHEMBL1140961, “Synthesis and biological activity of some new benzoxazoles” (2008)
Converted amounts (≈) assume the structure as drawn.

Tests used:
Assay type in all cases: functional
[1] = tested on: Staphylococcus aureus; experiment: Antimicrobial activity against Staphylococcus aureus ATCC 25923 after 24 hrs by disk diffusion method
[2] = tested on: Staphylococcus aureus; experiment: Antimicrobial activity against Staphylococcus aureus isolate after 24 hrs by disk diffusion method
[3] = tested on: Bacillus subtilis; experiment: Antimicrobial activity against Bacillus subtilis ATCC 6633 after 24 hrs by disk diffusion method
[4] = tested on: Bacillus subtilis; experiment: Antimicrobial activity against Bacillus subtilis isolate after 24 hrs by disk diffusion method
[5] = tested on: Escherichia coli; experiment: Antimicrobial activity against Escherichia coli ATCC 25922 after 24 hrs by disk diffusion method
[6] = tested on: Escherichia coli; experiment: Antimicrobial activity against Escherichia coli isolate after 24 hrs by disk diffusion method
[7] = tested on: Klebsiella pneumoniae; experiment: Antimicrobial activity against Klebsiella pneumoniae RSHM 574 after 24 hrs by disk diffusion method
[8] = tested on: Klebsiella pneumoniae; experiment: Antimicrobial activity against Klebsiella pneumoniae after 24 hrs by disk diffusion method
[9] = tested on: Pseudomonas aeruginosa; experiment: Antimicrobial activity against Pseudomonas aeruginosa ATCC […] after 24 hrs by disk diffusion method
[10] = tested on: Candida albicans; experiment: Antimicrobial activity against Candida albicans ATCC 10231 after 24 to 48 hrs after 24 hrs by disk diffusion method
[11] = tested on: Candida albicans; experiment: Antimicrobial activity against Candida albicans isolate after 24 to 48 hrs after 24 hrs by disk diffusion method

Compound	MIC ([1]; ATCC 25923, 24 h)	MIC [2]	MIC ([3]; ATCC 6633, 24 h)	MIC [4]	MIC ([5]; ATCC 25922, 24 h)	MIC [6]	MIC [7]	MIC [8]	MIC ([9]; ATCC 25853, 24 h)	MIC [10]	MIC [11]	MIC [1]	MIC [3]	MIC [5]	MIC [9]
CCS(=O)(=O)c1ccc2oc(-c3ccc(Cl)cc3)nc2c1	125 µg/mL (≈ 388 µM)	125 µg/mL (≈ 388 µM)	7.81 µg/mL (≈ 24.3 µM)	31.2 µg/mL (≈ 97.1 µM)	62.5 µg/mL (≈ 194 µM)	62.5 µg/mL (≈ 194 µM)	62.5 µg/mL (≈ 194 µM)	125 µg/mL (≈ 388 µM)	62.5 µg/mL (≈ 194 µM)	125 µg/mL (≈ 388 µM)	15.6 µg/mL (≈ 48.5 µM)				
CCS(=O)(=O)c1ccc2oc(-c3cccc(C)c3C)nc2c1	125 µg/mL (≈ 396 µM)	125 µg/mL (≈ 396 µM)	15.6 µg/mL (≈ 49.5 µM)	31.2 µg/mL (≈ 99.1 µM)	62.5 µg/mL (≈ 198 µM)	250 µg/mL (≈ 793 µM)	31.2 µg/mL (≈ 99.1 µM)	125 µg/mL (≈ 396 µM)	62.5 µg/mL (≈ 198 µM)	31.2 µg/mL (≈ 99.1 µM)	62.5 µg/mL (≈ 198 µM)				
CCS(=O)(=O)c1ccc2oc(Cc3ccc(Br)cc3)nc2c1	125 µg/mL (≈ 329 µM)	125 µg/mL (≈ 329 µM)	62.5 µg/mL (≈ 164 µM)	15.6 µg/mL (≈ 41.1 µM)	62.5 µg/mL (≈ 164 µM)	125 µg/mL (≈ 329 µM)	62.5 µg/mL (≈ 164 µM)	125 µg/mL (≈ 329 µM)	62.5 µg/mL (≈ 164 µM)	62.5 µg/mL (≈ 164 µM)	62.5 µg/mL (≈ 164 µM)				
GENTAMICIN SULFATE		1020 µg/mL		512 µg/mL		1 µg/mL	8 µg/mL	64 µg/mL				0.06 µg/mL	1 µg/mL	0.5 µg/mL	2 µg/mL
CCS(=O)(=O)c1ccc2oc(-c3ccc(C)cc3)nc2c1	125 µg/mL (≈ 415 µM)	125 µg/mL (≈ 415 µM)	31.2 µg/mL (≈ 104 µM)	31.2 µg/mL (≈ 104 µM)	62.5 µg/mL (≈ 207 µM)	62.5 µg/mL (≈ 207 µM)	62.5 µg/mL (≈ 207 µM)	31.2 µg/mL (≈ 104 µM)	62.5 µg/mL (≈ 207 µM)	125 µg/mL (≈ 415 µM)	31.2 µg/mL (≈ 104 µM)				
C[C@@H]1[C@H](O)[C@@H](C)/C=C/C=C/C=C/C=C/C=C/C=C/C=C/[C@H](O[C@@H]2O[C@H](C)[C@@H](O)[C@H](N)[C@@H]2O)C[C@@H]2O[C@](O)(C[C@@H](O)C[C@@H](O)[C@H](O)CC[C@@H](O)C[C@@H](O)CC(=O)O[C@H]1C)C[C@H](O)[C@H]2C(=O)O [AMPHOTERICIN B]										1 µg/mL (≈ 1.08 µM)	1 µg/mL (≈ 1.08 µM)				
CCS(=O)(=O)c1ccc2oc(-c3ccc([N+](=O)[O-])cc3)nc2c1	125 µg/mL (≈ 376 µM)	125 µg/mL (≈ 376 µM)	31.2 µg/mL (≈ 94 µM)	15.6 µg/mL (≈ 47 µM)	62.5 µg/mL (≈ 188 µM)	62.5 µg/mL (≈ 188 µM)	125 µg/mL (≈ 376 µM)	125 µg/mL (≈ 376 µM)	62.5 µg/mL (≈ 188 µM)	125 µg/mL (≈ 376 µM)	62.5 µg/mL (≈ 188 µM)				
CCS(=O)(=O)c1ccc2oc(CCc3ccccc3)nc2c1	125 µg/mL (≈ 396 µM)	125 µg/mL (≈ 396 µM)	62.5 µg/mL (≈ 198 µM)	31.2 µg/mL (≈ 99.1 µM)	62.5 µg/mL (≈ 198 µM)	125 µg/mL (≈ 396 µM)	31.2 µg/mL (≈ 99.1 µM)	125 µg/mL (≈ 396 µM)	62.5 µg/mL (≈ 198 µM)	62.5 µg/mL (≈ 198 µM)	62.5 µg/mL (≈ 198 µM)				
CC1COc2c(N3CCN(C)CC3)c(F)cc3c(=O)c(C(=O)O)cn1c23 (stereo not given) [OFLOXACIN]	0.25 µg/mL (≈ 0.692 µM)	2 µg/mL (≈ 5.53 µM)	0.125 µg/mL (≈ 0.346 µM)	32 µg/mL (≈ 88.6 µM)	0.125 µg/mL (≈ 0.346 µM)	32 µg/mL (≈ 88.6 µM)	0.25 µg/mL (≈ 0.692 µM)	64 µg/mL (≈ 177 µM)	8 µg/mL (≈ 22.1 µM)						
CCS(=O)(=O)c1ccc2oc(-c3ccccc3Br)nc2c1	125 µg/mL (≈ 341 µM)	125 µg/mL (≈ 341 µM)	15.6 µg/mL (≈ 42.7 µM)	31.2 µg/mL (≈ 85.3 µM)	62.5 µg/mL (≈ 171 µM)	250 µg/mL (≈ 683 µM)	31.2 µg/mL (≈ 85.3 µM)	125 µg/mL (≈ 341 µM)	62.5 µg/mL (≈ 171 µM)	62.5 µg/mL (≈ 171 µM)	62.5 µg/mL (≈ 171 µM)				
CCS(=O)(=O)c1ccc2oc(-c3ccc(F)cc3)nc2c1	125 µg/mL (≈ 409 µM)	125 µg/mL (≈ 409 µM)	31.2 µg/mL (≈ 102 µM)	31.2 µg/mL (≈ 102 µM)	62.5 µg/mL (≈ 205 µM)	62.5 µg/mL (≈ 205 µM)	31.2 µg/mL (≈ 102 µM)	125 µg/mL (≈ 409 µM)	62.5 µg/mL (≈ 205 µM)	125 µg/mL (≈ 409 µM)	31.2 µg/mL (≈ 102 µM)				
CCS(=O)(=O)c1ccc2oc(-c3cc(Br)ccc3Cl)nc2c1	125 µg/mL (≈ 312 µM)	125 µg/mL (≈ 312 µM)	62.5 µg/mL (≈ 156 µM)	31.2 µg/mL (≈ 78 µM)	62.5 µg/mL (≈ 156 µM)	125 µg/mL (≈ 312 µM)	62.5 µg/mL (≈ 156 µM)	125 µg/mL (≈ 312 µM)	62.5 µg/mL (≈ 156 µM)	62.5 µg/mL (≈ 156 µM)	62.5 µg/mL (≈ 156 µM)				
OC(Cn1cncn1)(Cn1cncn1)c1ccc(F)cc1F [FLUCONAZOLE]										1 µg/mL (≈ 3.27 µM)	64 µg/mL (≈ 209 µM)				
CCS(=O)(=O)c1ccc2oc(-c3ccccc3Cl)nc2c1	125 µg/mL (≈ 388 µM)	125 µg/mL (≈ 388 µM)	15.6 µg/mL (≈ 48.5 µM)	31.2 µg/mL (≈ 97.1 µM)	62.5 µg/mL (≈ 194 µM)	125 µg/mL (≈ 388 µM)	31.2 µg/mL (≈ 97.1 µM)	125 µg/mL (≈ 388 µM)	62.5 µg/mL (≈ 194 µM)	31.2 µg/mL (≈ 97.1 µM)	62.5 µg/mL (≈ 194 µM)				
CC1(C)S[C@@H]2[C@H](NC(=O)[C@H](N)c3ccccc3)C(=O)N2[C@H]1C(=O)O.O.O.O [AMPICILLIN TRIHYDRATE]	0.03 µg/mL	2 µg/mL	0.25 µg/mL	8 µg/mL	8 µg/mL	256 µg/mL	2 µg/mL	256 µg/mL	4100 µg/mL						
CCS(=O)(=O)c1ccc2oc(-c3ccccc3)nc2c1	125 µg/mL (≈ 435 µM)	125 µg/mL (≈ 435 µM)	62.5 µg/mL (≈ 218 µM)	31.2 µg/mL (≈ 109 µM)	62.5 µg/mL (≈ 218 µM)	62.5 µg/mL (≈ 218 µM)	125 µg/mL (≈ 435 µM)	125 µg/mL (≈ 435 µM)	62.5 µg/mL (≈ 218 µM)	125 µg/mL (≈ 435 µM)	31.2 µg/mL (≈ 109 µM)				
CCS(=O)(=O)c1ccc2oc(Cc3ccccc3Cl)nc2c1	125 µg/mL (≈ 372 µM)	125 µg/mL (≈ 372 µM)	62.5 µg/mL (≈ 186 µM)	31.2 µg/mL (≈ 93.1 µM)	62.5 µg/mL (≈ 186 µM)	125 µg/mL (≈ 372 µM)	31.2 µg/mL (≈ 93.1 µM)	125 µg/mL (≈ 372 µM)	62.5 µg/mL (≈ 186 µM)	62.5 µg/mL (≈ 186 µM)	62.5 µg/mL (≈ 186 µM)				
CCS(=O)(=O)c1ccc2oc(Cc3ccc(F)cc3)nc2c1	125 µg/mL (≈ 391 µM)	125 µg/mL (≈ 391 µM)	62.5 µg/mL (≈ 196 µM)	31.2 µg/mL (≈ 97.9 µM)	62.5 µg/mL (≈ 196 µM)	125 µg/mL (≈ 391 µM)	31.2 µg/mL (≈ 97.9 µM)	125 µg/mL (≈ 391 µM)	62.5 µg/mL (≈ 196 µM)	62.5 µg/mL (≈ 196 µM)	31.2 µg/mL (≈ 97.9 µM)				
CCS(=O)(=O)c1ccc2oc(Cc3ccc(C)cc3)nc2c1	125 µg/mL (≈ 396 µM)	125 µg/mL (≈ 396 µM)	31.2 µg/mL (≈ 99.1 µM)	31.2 µg/mL (≈ 99.1 µM)	62.5 µg/mL (≈ 198 µM)	125 µg/mL (≈ 396 µM)	62.5 µg/mL (≈ 198 µM)	125 µg/mL (≈ 396 µM)	62.5 µg/mL (≈ 198 µM)	62.5 µg/mL (≈ 198 µM)	62.5 µg/mL (≈ 198 µM)				
CCS(=O)(=O)c1ccc2oc(-c3ccc(Br)cc3)nc2c1	125 µg/mL (≈ 341 µM)	125 µg/mL (≈ 341 µM)	15.6 µg/mL (≈ 42.7 µM)	31.2 µg/mL (≈ 85.3 µM)	62.5 µg/mL (≈ 171 µM)	62.5 µg/mL (≈ 171 µM)	62.5 µg/mL (≈ 171 µM)	125 µg/mL (≈ 341 µM)	62.5 µg/mL (≈ 171 µM)	125 µg/mL (≈ 341 µM)	31.2 µg/mL (≈ 85.3 µM)				
CCS(=O)(=O)c1ccc2oc(-c3ccccc3F)nc2c1	125 µg/mL (≈ 409 µM)	125 µg/mL (≈ 409 µM)	62.5 µg/mL (≈ 205 µM)	31.2 µg/mL (≈ 102 µM)	62.5 µg/mL (≈ 205 µM)	250 µg/mL (≈ 819 µM)	31.2 µg/mL (≈ 102 µM)	125 µg/mL (≈ 409 µM)	62.5 µg/mL (≈ 205 µM)	62.5 µg/mL (≈ 205 µM)	62.5 µg/mL (≈ 205 µM)				
CCS(=O)(=O)c1ccc2oc(-c3ccc(C(C)(C)C)cc3)nc2c1	125 µg/mL (≈ 364 µM)	125 µg/mL (≈ 364 µM)	7.81 µg/mL (≈ 22.7 µM)	15.6 µg/mL (≈ 45.5 µM)	62.5 µg/mL (≈ 182 µM)	62.5 µg/mL (≈ 182 µM)	62.5 µg/mL (≈ 182 µM)	250 µg/mL (≈ 728 µM)	62.5 µg/mL (≈ 182 µM)	125 µg/mL (≈ 364 µM)	31.2 µg/mL (≈ 91 µM)				
CCc1ccc(-c2nc3cc(S(=O)(=O)CC)ccc3o2)cc1	125 µg/mL (≈ 396 µM)	125 µg/mL (≈ 396 µM)	31.2 µg/mL (≈ 99.1 µM)	31.2 µg/mL (≈ 99.1 µM)	62.5 µg/mL (≈ 198 µM)	62.5 µg/mL (≈ 198 µM)	62.5 µg/mL (≈ 198 µM)	125 µg/mL (≈ 396 µM)	62.5 µg/mL (≈ 198 µM)	125 µg/mL (≈ 396 µM)	15.6 µg/mL (≈ 49.5 µM)				
CCS(=O)(=O)c1ccc2oc(Cc3ccc(Cl)cc3)nc2c1	125 µg/mL (≈ 372 µM)	125 µg/mL (≈ 372 µM)	31.2 µg/mL (≈ 93.1 µM)	15.6 µg/mL (≈ 46.5 µM)	62.5 µg/mL (≈ 186 µM)	125 µg/mL (≈ 372 µM)	62.5 µg/mL (≈ 186 µM)	125 µg/mL (≈ 372 µM)	62.5 µg/mL (≈ 186 µM)	31.2 µg/mL (≈ 93.1 µM)	62.5 µg/mL (≈ 186 µM)				
